Reference: paper PMC9780499, “Designing double-site lipidated peptide amphiphiles as potent antimicrobial biomaterials to combat multidrug-resistant bacteria” (Frontiers in Microbiology, 2022)
Converted amounts (≈) assume the structure as drawn. Ends that are not written are not given here. Peptide text beside a SMILES is read from it. * marks the point of attachment. Octanoyl = CCCCCCCC(=O)*; Hexanoyl = CCCCCC(=O)*

Legend:
[1] = test system: S. epidermidis 12228; type: cell-based; details: 12228, 20 h
Text: (§1) Escherichia coli ATCC25922, E. coli UB1005, Pseudomonas aeruginosa ATCC27853, Salmonella typhimurium ATCC14028, S. typhimurium C7731, Staphylococcus aureus ATCC29213, Methicillin-resistant S. aureus (MRSA) ATCC43300, S. epidermidis ATCC12228, and Enterococcus faecalis ATCC29212 were stored by the institute of animal nutrition, Northeast Agricultural University (Harbin, China). Multidrug-Resistant E. coli HP73 and E. coli HP74 were clinically isolated from swine-derived Escherichia coli and stored by the institute of animal nutrition, Northeast Agricultural University (Harbin, China).
(§2) The MICs were determined using a broth microdilution method with reference to Clinical and Laboratory Standards Institute (CLSI) guidelines ([Wiegand et al., 2008]). After a two-fold serial dilution of the peptides (50 μl, dilution buffer: 0.01% acetic acid containing 0.2% BSA) prepared in a 96-well plate, a series of an equal volume of bacterial solution (50 μl) prepared in Mueller-Hinton broth (MHB) were added to the same 96-well plate, and the final bacterial inoculum size in each well of the 96-well plate was approximately 5 × 10^5 CFU/ml. As positive and negative controls, bacteria solution without peptides and blank samples without bacteria were prepared in the same 96-well plate. […] The lowest peptide concentration at which there was no increase in optical density was referred to as the MIC.

[2] = test system: P. aeruginosa 27853; type: cell-based, Pseudomonas aeruginosa; details: 27853, 20 h
Text: as §1, §2

[3] = test system: MRSA 43300; type: cell-based, Methicillin-resistant S. aureus; details: 43300, 20 h
Text: as §1, §2

[4] = test system: IPEC-J2; test: MTT cytotoxicity assay; type: cell-based, porcine
Procedure: (§3) 3-(4,5-dimethylthiozol-2-yl)-2,5-diphenyltetrazolium bromide (MTT) assay and live/dead cell staining assay were conducted to assess the peptide cytotoxicity. For the MTT assay, cell lines were seeded and passaged twice in high-glucose Dulbecco’s modified Eagle’s medium (DMEM, containing 100 μg/ml streptomycin, 100 U/ml penicillin, and 10% vol/vol fetal bovine serum) or Dulbecco’s Modified Eagle Medium/Nutrient Mixture F-12 (DMEM/F-12, containing 100 μg/ml streptomycin, 100 U/ml penicillin, and 10% vol/vol fetal bovine serum) at a 5% CO2 incubator (37°C). The cells (approximately 50,000 cells per well) were cultured in a 96-well plate at a 5% CO2 incubator for 1 day. Then various concentrations of peptide solutions (50 μl) were added to the plate and incubated for another 1 day. The cells solution without peptides and blank samples without cells and peptides were prepared in the same 96-well plate as positive and negative controls, respectively. Subsequently, MTT (0.5 mg/ml, 20 μl per well) was added and the plate was incubated for another 4 h. Removed all supernatant from the plate and added 150 μl of dimethyl sulfoxide. Finally, a microplate reader (Tecan GENios F129004, Austria) was used to record the absorbance data at OD570 nm. Melittin was employed as a control peptide. The cell viability was calculated using the previously described equation ([Lai et al., 2021]).

[5] = test system: S. aureus 29213; type: cell-based, Staphylococcus aureus; details: 29213, 20 h
Text: as §1, §2

[6] = molecular target: proteinase K (Parengyodontium album, UniProt P06873); test: Proteolytic stability, tricine-SDS-PAGE; type: in vitro ADME; details: peptide 2.56 mM + 500 μg/ml protease (equal volumes), 16.5% tricine-SDS-PAGE
Procedure: 16.5% tricine−SDS − PAGE was used to evaluate the proteolytic stability of the peptides. The peptides (2.56 mM, 50 μl) were incubated with protease (500 μg/ml, 50 μl) at 37°C. After incubating for 1, 2, 4, or 8 h, the mixture (20 μl) was drawn out and placed in a bath of boiling water for 5 min. The mixture was then diluted to the suitable concentration for 16.5% tricine-SDS-PAGE analysis.

[7] = test system: HEK293; test: Live/dead cell staining (calcein-AM/PI); type: cell-based, human; details: peptide concentration less than 64 μM
Text: For live/dead cell staining assay, HEK293 cell lines, calcein-AM, and propidium iodide (PI) were employed to assess the cell viability. The processes that come next are the same as in the prior report ([Lai et al., 2021]). There were two technical replicates used in the experiment.

[8] = test system: E. faecalis 29212; type: cell-based, Enterococcus faecalis; details: 29212, 20 h
Text: as §1, §2

[9] = test system: E. coli HP74; test: microbe, parasite or virus in culture; type: cell-based, Escherichia coli; details: HP74, 20 h; read-out: MICs, E. coli HP74
Text: as §1, §2

[10] = test system: E. coli HP73; test: microbe, parasite or virus in culture; type: cell-based, Escherichia coli; details: HP73, 20 h; read-out: MICs, E. coli HP73
Text: as §1, §2

[11] = test system: S. typhimurium C7731; type: cell-based, Salmonella typhimurium; details: C7731, 20 h
Text: as §1, §2

[12] = test system: S. typhimurium 14028; type: cell-based, Salmonella typhimurium; details: 14028, 20 h
Text: as §1, §2

[13] = test system: HEK293T; test: MTT cytotoxicity assay; type: cell-based, human
Procedure: as §3

[14] = test system: 9 bacterial strains; test: Geometric mean MIC over the 9 bacterial strains; type: cell-based; details: geometric mean of the 9 strains of Table 1
Procedure: as §2

[15] = test system: E. coli UB1005; type: cell-based, Escherichia coli; details: UB1005, 20 h
Text: as §1, §2

[16] = test system: E. coli 25922; type: cell-based, Escherichia coli; details: 25922, 20 h
Text: as §1, §2

[17] = peptide concentration less than 64 μM
[18] = at the test concentrations, 1 day incubation

proteinase K, sequence (P06873 106-384): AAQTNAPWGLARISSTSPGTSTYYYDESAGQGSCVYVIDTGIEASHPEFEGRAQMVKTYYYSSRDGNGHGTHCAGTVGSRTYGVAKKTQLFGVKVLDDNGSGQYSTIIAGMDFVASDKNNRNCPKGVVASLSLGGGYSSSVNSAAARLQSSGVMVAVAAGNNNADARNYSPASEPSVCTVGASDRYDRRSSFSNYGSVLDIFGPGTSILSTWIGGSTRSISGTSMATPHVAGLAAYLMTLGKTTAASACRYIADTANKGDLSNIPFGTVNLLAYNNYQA

Row | Molecule | MICs, S. epidermidis 12228 [1] [µM] | MICs, P. aeruginosa 27853 [2] [µM] | MICs, MRSA 43300 [3] [µM] | MICs, S. aureus 29213 [5] [µM] | MICs, E. faecalis 29212 [8] [µM] | MIC [9] [µM] | MIC [10] [µM] | MICs, S. typhimurium C7731 [11] [µM] | MICs, S. typhimurium 14028 [12] [µM] | GM, geometric mean MICs from the 9 bacterial strains [14] [µM] | MICs, E. coli UB1005 [15] [µM] | MICs, E. coli 25922 [16] [µM] | further results
1 | CCCCCC(=O)NCCCC[C@H](NC(=O)[C@H](CC(C)C)NC(=O)[C@H](CCCCN)NC(=O)[C@H](CCCCN)NC(=O)[C@H](CC(C)C)NC(=O)[C@H](CCCCNC(=O)CCCCC)NC(=O)[C@H](CCCCN)NC(=O)[C@H](CCCCN)NC(=O)[C@H](CC(C)C)NC(=O)[C@H](CCCCN)NC(=O)[C@H](CCCCN)NC(=O)[C@H](CC(C)C)NC(=O)[C@@H](N)Cc1c[nH]c2ccccc12)C(=O)N[C@@H](CCCCN)C(=O)N[C@@H](CCCCN)C(=O)O [WL-C6] (H-WLKKLKKK(Hexanoyl)LKKLK(Hexanoyl)KK-OH) | 4 | 2 | 4 | 4 | 4 | 4 (≈ 8.54 µg/mL) | 4 (≈ 8.54 µg/mL) | 4 | 2 | 3.43 | 4 | 4 | Toxicity toward IPEC-J2 [4, 17]: negligible toxicity; Stability to proteinase K (band on gel) ([6]; 37°C, 1, 2, 4, 8 h): cleaved by proteinase K; Digestion period beyond which the bands gradually vanished, proteinase K ([6]; 37°C): > 1 h; Toxicity toward HEK293 [7]: negligible toxicity; Toxicity toward HEK293T [13, 17]: negligible toxicity
2 | CCCCCCCC(=O)NCCCC[C@H](NC(=O)[C@H](CC(C)C)NC(=O)[C@H](CCCCN)NC(=O)[C@H](CCCCN)NC(=O)[C@H](CC(C)C)NC(=O)[C@H](CCCCNC(=O)CCCCCCC)NC(=O)[C@H](CCCCN)NC(=O)[C@H](CCCCN)NC(=O)[C@H](CC(C)C)NC(=O)[C@H](CCCCN)NC(=O)[C@H](CCCCN)NC(=O)[C@H](CC(C)C)NC(=O)[C@@H](N)Cc1c[nH]c2ccccc12)C(=O)N[C@@H](CCCCN)C(=O)N[C@@H](CCCCN)C(=O)O [WL-C8] (H-WLKKLKKK(Octanoyl)LKKLK(Octanoyl)KK-OH) | 4 | 4 | 4 | 4 | 4 | 4 (≈ 8.76 µg/mL) | 4 (≈ 8.76 µg/mL) | 4 | 4 | 3.70 | 2 | 4 | Concentration above which significant cytotoxicity toward IPEC-J2 ([4]; 1 day incubation): greater than 32 μM; Concentration above which significant cytotoxicity toward HEK293T ([13]; 1 day incubation): greater than 32 μM
3 | WLKKLKKKLKKLKKK [WL] | 128 | 32 | 128 | 128 | >128 |  |  | 32 | 32 | 64.00 | 32 | 32 | Cytotoxicity toward IPEC-J2 [4, 18]: no significant cytotoxicity; Cytotoxicity toward HEK293T [13, 18]: no significant cytotoxicity
